Test results published in patent US6737383B1, “Herbicidal oxadiazolidines” (priority 1999, dated 2004).

What was measured:
rape = experiment: Test B pre/postemergence rape; assay type: in vivo, Brassica napus
Outline: (§1)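 Test chemicals in a non-phytotoxic solvent mixture with surfactant were sprayed preemergence onto planted seeds and postemergence onto plants 2 to 18 cm tall (1- to 4-leaf stage). After twelve to sixteen days in a greenhouse, injury was visually rated against untreated controls from 0 (no effect) to 10 (complete control).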

soybean = experiment: Test B pre/postemergence soybean; assay type: in vivo, Glycine max
Outline: as §1

morningglory = experiment: Test B pre/postemergence morningglory; assay type: in vivo, Ipomoea hederacea
Outline: as §1

blackgrass = experiment: Test B pre/postemergence blackgrass; assay type: in vivo, Alopecurus myosuroides
Outline: as §1

purple nutsedge = experiment: Test B pre/postemergence purple nutsedge; assay type: in vivo, Cyperus rotundus
Outline: as §1

wheat = experiment: Test B pre/postemergence wheat; assay type: in vivo, Triticum aestivum
Outline: as §1

bedstraw = experiment: Test B pre/postemergence bedstraw; assay type: in vivo, Galium aparine; conditions: Postemergence, Rate 62 g/ha; scale 0 to 10, 0 is no effect, 10 is complete control
Outline: as §1

bamyardgrass = experiment: Test B flood test barnyardgrass; assay type: in vivo, Echinochloa crus-galli
Outline: (§2)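 Plants were grown to the 2-leaf stage before treatment with test chemical, then held in a greenhouse for twelve to sixteen days. Injury was visually rated against untreated controls on a 0–10 scale, where 0 is no effect and 10 is complete control.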

smallflower flatsedge = experiment: Test B flood test smallflower flatsedge; assay type: in vivo, Cyperus difformis
Outline: as §2

cocklebur = experiment: Test B pre/postemergence cocklebur; assay type: in vivo, Xanthium strumarium
Outline: as §1

pigweed = experiment: Test B pre/postemergence pigweed; assay type: in vivo, Amaranthus retroflexus
Outline: as §1

sugar beet = experiment: Test B pre/postemergence sugar beet; assay type: in vivo, Beta vulgaris
Outline: as §1

wild oat = experiment: Test B pre/postemergence wild oat; assay type: in vivo, Avena fatua
Outline: as §1

surinam grass = experiment: Test B pre/postemergence surinam grass; assay type: in vivo, Brachiaria decumbens
Outline: as §1

giant foxtail = experiment: Test B pre/postemergence giant foxtail; assay type: in vivo, Setaria faberii
Outline: as §1

duck salad = experiment: Test B flood test duck salad; assay type: in vivo, Heteranthera limosa
Outline: as §2

[1] = Postemergence, Rate 62 g/ha, scale 0 to 10, 0 is no effect, 10 is complete control
[2] = Postemergence, Rate 125 g/ha, scale of 0 to 10 where 0 is no effect and 10 is complete control
[3] = Preemergence, Rate 62 g/ha, scale of 0 to 10 where 0 is no effect and 10 is complete control
[4] = Preemergence, Rate 125 g/ha, scale of 0 to 10 where 0 is no effect and 10 is complete control
[5] = Preemergence, Rate 250 g/ha, scale 0 to 10 (0 no effect, 10 complete control)
[6] = Preemergence, Rate 500 g/ha, scale of 0 to 10 where 0 is no effect and 10 is complete control
[7] = Rate 500 g/ha, Postemergence, scale 0 to 10, 0 is no effect, 10 is complete control
[8] = Postemergence, Rate 250 g/ha, scale of 0 to 10, 0 is no effect, 10 is complete control
[9] = Rate 62 g/ha, flood test species, Pre-emergence, visual evaluation after twelve to sixteen days
[10] = Rate 125 g/ha, under heading Pre-emergence, flood test species, visual evaluation after twelve to sixteen days
[11] = Rate 250 g/ha, Pre-emergence (flood test species), scale 0 to 10, 0 is no effect, 10 is complete control
[12] = Rate 500 g/ha, Pre-emergence section of Table B, 0 to 10 scale (0 no effect, 10 complete control)

SMILES: CC[C@H](C)n1c(=O)on(C(=O)N(c2ccc(Cl)cc2)C(C)C)c1=O [Compound 664]
- Plant response rating, Rape (rape; [1]): 0
- Rape plant response rating (rape; [2]): 0
- Rape plant response rating (rape; [3]): 0
- Rape plant response rating (rape; [4]): 1
- Plant response rating, Rape (rape; [5]): 1
- Plant response rating, Rape (rape; [6]): 6
- Rape plant response rating (rape; [7]): 3
- Plant response rating, Soybean (soybean; [1]): 3
- Soybean plant response rating (soybean; [2]): 4
- Soybean plant response rating (soybean; [3]): 0
- Soybean plant response rating (soybean; [4]): 0
- Plant response rating, Soybean (soybean; [5]): 0
- Plant response rating, Soybean (soybean; [6]): 0
- Plant response rating, Morningglory (morningglory; [1]): 0
- Morningglory plant response rating (morningglory; [2]): 2
- Morningglory plant response rating (morningglory; [8]): 9
- Morningglory plant response rating (morningglory; [3]): 0
- Morningglory plant response rating (morningglory; [4]): 0
- Plant response rating, Morningglory (morningglory; [5]): 0
- Plant response rating, Morningglory (morningglory; [6]): 4
- Morningglory plant response rating (morningglory; [7]): 10
- Plant response rating, Blackgrass (blackgrass; [1]): 4
- Blackgrass plant response rating (blackgrass; [2]): 7
- Blackgrass plant response rating (blackgrass; [8]): 9
- Blackgrass plant response rating (blackgrass; [3]): 5
- Blackgrass plant response rating (blackgrass; [4]): 6
- Plant response rating, Blackgrass (blackgrass; [5]): 6
- Plant response rating, Blackgrass (blackgrass; [6]): 8
- Blackgrass plant response rating (blackgrass; [7]): 9
- Plant response rating, Nutsedge (purple nutsedge; [1]): 0
- Nutsedge plant response rating (purple nutsedge; [2]): 0
- Nutsedge plant response rating (purple nutsedge; [3]): 0
- Nutsedge plant response rating (purple nutsedge; [4]): 0
- Plant response rating, Nutsedge (purple nutsedge; [5]): 0
- Plant response rating, Nutsedge (purple nutsedge; [6]): 0
- Nutsedge plant response rating (purple nutsedge; [7]): 0
- Plant response rating, Wheat (wheat; [1]): 0
- Wheat plant response rating (wheat; [2]): 0
- Wheat plant response rating (wheat; [3]): 0
- Wheat plant response rating (wheat; [4]): 0
- Plant response rating, Wheat (wheat; [5]): 0
- Plant response rating, Wheat (wheat; [6]): 5
- Wheat plant response rating (wheat; [7]): 2
- Plant response rating, Bedstraw (bedstraw): 0
- Plant response rating, Barnyardgrass (0 to 10 scale, 0 is no effect, 10 is complete control) (bamyardgrass; [9]): 0
- Barnyardgrass plant response rating (0 to 10 scale, 0 is no effect, 10 is complete control) (bamyardgrass; [10]): 0
- Barnyardgrass plant response rating (bamyardgrass; [11]): 0
- Barnyardgrass plant response rating (bamyardgrass; [12]): 0
- Plant response rating, S. Flatsedge (0 to 10 scale, 0 is no effect, 10 is complete control) (smallflower flatsedge; [9]): 0
- S. Flatsedge plant response rating (0 to 10 scale, 0 is no effect, 10 is complete control) (smallflower flatsedge; [10]): 0
- S. Flatsedge plant response rating (smallflower flatsedge; [11]): 0
- S. Flatsedge plant response rating (smallflower flatsedge; [12]): 0
- Plant response rating, Cocklebur (cocklebur; [1]): 0
- Cocklebur plant response rating (cocklebur; [2]): 0
- Cocklebur plant response rating (cocklebur; [8]): 2
- Cocklebur plant response rating (cocklebur; [3]): 0
- Cocklebur plant response rating (cocklebur; [4]): 0
- Plant response rating, Cocklebur (cocklebur; [5]): 0
- Plant response rating, Cocklebur (cocklebur; [6]): 3
- Cocklebur plant response rating (cocklebur; [7]): 6
- Plant response rating, Redroot pigweed (pigweed; [1]): 0
- Redroot pigweed plant response rating (pigweed; [2]): 2
- Redroot pigweed plant response rating (pigweed; [3]): 2
- Redroot pigweed plant response rating (pigweed; [4]): 7
- Plant response rating, Redroot pigweed (pigweed; [5]): 7
- Plant response rating, Redroot pigweed (pigweed; [6]): 10
- Redroot pigweed plant response rating (pigweed; [7]): 6
- Plant response rating, Sugarbeets (sugar beet; [1]): 0
- Sugarbeets plant response rating (sugar beet; [2]): 0
- Sugarbeets plant response rating (sugar beet; [3]): 0
- Sugarbeets plant response rating (sugar beet; [4]): 0
- Plant response rating, Sugarbeets (sugar beet; [5]): 0
- Plant response rating, Sugarbeets (sugar beet; [6]): 5
- Sugarbeets plant response rating (sugar beet; [7]): 0
- Plant response rating, Wild oats (wild oat; [1]): 0
- Wild oats plant response rating (wild oat; [2]): 0
- Wild oats plant response rating (wild oat; [3]): 0
- Wild oats plant response rating (wild oat; [4]): 3
- Plant response rating, Wild oats (wild oat; [5]): 3
- Plant response rating, Wild oats (wild oat; [6]): 7
- Wild oats plant response rating (wild oat; [7]): 7
- Plant response rating, B. signalgrass (surinam grass; [1]): 0
- Plant response rating, B. signalgrass (surinam grass; [2]): 0
- B. signalgrass plant response rating (surinam grass; [8]): 4
- B. signalgrass plant response rating (surinam grass; [3]): 1
- B. signalgrass plant response rating (surinam grass; [4]): 5
- Plant response rating, B. signalgrass (surinam grass; [5]): 5
- Plant response rating, B. signalgrass (surinam grass; [6]): 8
- B. signalgrass plant response rating (surinam grass; [7]): 7
- Plant response rating, Giant foxtail (giant foxtail; [1]): 2
- Giant foxtail plant response rating (giant foxtail; [2]): 6
- Giant foxtail plant response rating (giant foxtail; [8]): 9
- Giant foxtail plant response rating (giant foxtail; [3]): 9
- Giant foxtail plant response rating (giant foxtail; [4]): 10
- Plant response rating, Giant foxtail (giant foxtail; [5]): 10
- Plant response rating, Giant foxtail (giant foxtail; [6]): 10
- Giant foxtail plant response rating (giant foxtail; [7]): 9
- Plant response rating, Ducksalad (0 to 10 scale, 0 is no effect, 10 is complete control) (duck salad; [9]): 0
- Ducksalad plant response rating (0 to 10 scale, 0 is no effect, 10 is complete control) (duck salad; [10]): 0
- Ducksalad plant response rating (duck salad; [11]): 0
- Ducksalad plant response rating (duck salad; [12]): 0
